Measured values reported in ChEMBL document CHEMBL5120876, “Design, synthesis and biological evaluation of novel indole derivatives as gut-selective NaPi2b inhibitors” (Bioorg Med Chem, 2022).
Values after ≈ are worked out from the molar mass of the structure shown. Each block holds one molecule with its values, some of them ahead of it. Active and inactive are the calls of the source. The rule behind the calls is not given here.

What was measured:
[1] = biological target: T1, Sodium-dependent phosphate transport protein 2B (Homo sapiens, UniProt O95436); experiment: Inhibition of human NaPi2b expressed in CHO-K1 cells assessed as reduction in [33P] uptake preincubated with compound for 30 mins followed by [33P]O4 addition and measured after 30 mins by TopCount liquid scintillation counting method; type: cell-based
T1 sequence (O95436 whole entry): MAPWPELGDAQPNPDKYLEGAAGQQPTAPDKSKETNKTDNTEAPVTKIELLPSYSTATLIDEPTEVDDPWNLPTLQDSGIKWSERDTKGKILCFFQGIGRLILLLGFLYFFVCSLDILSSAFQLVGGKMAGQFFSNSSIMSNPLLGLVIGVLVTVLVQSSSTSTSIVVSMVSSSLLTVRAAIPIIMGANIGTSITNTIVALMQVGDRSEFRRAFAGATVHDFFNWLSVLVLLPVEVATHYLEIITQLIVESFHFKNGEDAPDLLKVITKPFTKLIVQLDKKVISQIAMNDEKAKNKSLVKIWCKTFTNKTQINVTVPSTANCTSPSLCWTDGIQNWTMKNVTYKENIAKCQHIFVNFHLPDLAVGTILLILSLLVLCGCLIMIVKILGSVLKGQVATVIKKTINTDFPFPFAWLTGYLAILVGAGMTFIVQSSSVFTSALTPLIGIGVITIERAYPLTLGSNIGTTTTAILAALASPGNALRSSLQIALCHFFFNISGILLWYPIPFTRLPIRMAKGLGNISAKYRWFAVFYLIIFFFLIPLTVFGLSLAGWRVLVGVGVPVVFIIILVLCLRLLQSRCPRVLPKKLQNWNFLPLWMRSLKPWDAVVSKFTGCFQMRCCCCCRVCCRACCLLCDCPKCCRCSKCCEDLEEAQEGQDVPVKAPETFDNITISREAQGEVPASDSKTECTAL

[2] = biological target: T2, Sodium-dependent phosphate transport protein 2B (Homo sapiens) (UniProt O95436); experiment: Inhibition of human NaPi2b at 1 uM relative to control
T2 sequence (whole entry): T1 sequence (O95436 whole entry)

[3] = biological target: T1, Sodium-dependent phosphate transport protein 2B; experiment: Inhibition of NaPi2b (unknown origin)
[4] = AUC (0 to t) in Sprague-Dawley rat at 1 mg/kg, iv administered as single dose by LC-MS analysis; type: ADME, organism-based; design: dose 1 mg/kg, route iv; settings: in vivo
[5] = Oral bioavailability in Sprague-Dawley rat at 10 mg/kg administered as single dose by LC-MS analysis; type: ADME, organism-based; settings: in vivo
[6] = AUC (0 to t) in Sprague-Dawley rat at 10 mg/kg, po administered as single dose by LC-MS analysis; type: ADME, organism-based; design: dose 10 mg/kg, route po; settings: in vivo
[7] = Drug excretion in Sprague-Dawley rat feces assessed as cumulative amount of unchanged drug excreted at 10 mg/kg, po administered as single dose and measured within 24 hrs by LC-MS analysis; type: ADME, organism-based; settings: faeces, read-out: Ae
[8] = Solubility of the compound in fasted state simulated intestinal fluid at pH 6.5 incubated for 24 hrs by HPLC analysis; type: physicochemical
[9] = Cmax in Sprague-Dawley rat at 10 mg/kg, po administered as single dose by LC-MS analysis; type: ADME, organism-based; design: dose 10 mg/kg, route po; settings: in vivo
[10] = biological target: T3, Sodium-dependent phosphate transport protein 2B (Rattus norvegicus, UniProt Q9JJ09); experiment: Inhibition of rat NaPi2b expressed in CHO-K1 cells assessed as reduction in [33P] uptake preincubated with compound for 30 mins followed by [33P]O4 addition and measured after 10 mins by TopCount liquid scintillation counting method; type: cell-based
T3 sequence (Q9JJ09 whole entry): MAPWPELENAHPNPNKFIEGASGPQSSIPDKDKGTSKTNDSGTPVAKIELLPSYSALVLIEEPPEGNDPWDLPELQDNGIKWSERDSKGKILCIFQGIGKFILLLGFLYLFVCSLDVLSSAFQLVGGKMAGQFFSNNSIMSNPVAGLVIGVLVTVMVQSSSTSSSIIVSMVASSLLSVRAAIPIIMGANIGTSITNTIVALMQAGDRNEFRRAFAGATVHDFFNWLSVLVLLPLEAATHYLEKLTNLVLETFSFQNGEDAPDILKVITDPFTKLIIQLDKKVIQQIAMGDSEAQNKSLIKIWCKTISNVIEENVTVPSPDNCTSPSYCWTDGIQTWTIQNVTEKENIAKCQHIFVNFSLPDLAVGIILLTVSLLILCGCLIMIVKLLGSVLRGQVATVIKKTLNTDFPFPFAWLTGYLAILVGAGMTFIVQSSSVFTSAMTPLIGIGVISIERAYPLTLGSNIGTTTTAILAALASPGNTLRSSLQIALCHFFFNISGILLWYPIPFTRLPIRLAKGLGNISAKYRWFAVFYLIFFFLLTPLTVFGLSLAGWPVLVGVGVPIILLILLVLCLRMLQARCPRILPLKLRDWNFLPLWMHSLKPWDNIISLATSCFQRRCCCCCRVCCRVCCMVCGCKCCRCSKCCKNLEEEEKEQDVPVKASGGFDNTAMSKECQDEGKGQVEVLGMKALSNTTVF

[11] = Solubility of the compound in fed state simulated intestinal fluid at pH 5.0 incubated for 24 hrs by HPLC analysis; type: physicochemical
[12] = Drug concentration in Sprague-Dawley rat intestine at 10 mg/kg, po administered as single dose; type: ADME, organism-based; settings: in vivo
[13] = AUC (0 to t) in Sprague-Dawley rat at 1.17 mg/kg, iv administered as single dose by LC-MS analysis; type: ADME, organism-based; design: dose 1.17 mg/kg, route iv; settings: in vivo
Rattus norvegicus = experiment: In vivo inhibition of NaPi2b in Sprague-Dawley rat assessed as reduction in phosphate absorption at 10 mg/kg, po preincubated for 5 mins followed by addition of NaH2PO4 containing 32P-phosphate solution and measured after 15 to 30 mins by liquid scintillation counting method; type: functional, organism-based; settings: time 20.0 min

- IC50 [1]: 1020 nM
SMILES: CN(C(=O)CCC(=O)O)C1CCN(Cc2cccc(C(=O)Nc3[nH]c4ccccc4c3C(=O)Nc3ccc(CCCc4ccc(C(=O)O)cc4)cc3)c2)C1 (stereo not given)

- IC50 [1]: 401 nM
SMILES: CCC(CC)N(CCN(C)C(=O)CNS(=O)(=O)c1c[nH]c(C(N)=O)c1)Cc1cccc(C(=O)Nc2[nH]c3ccccc3c2C(=O)Nc2ccc(CCCc3ccc(C(=O)O)cc3)cc2)c1

- inhibition [2]: 87%
SMILES: CCC(CC)N(CCN(C)C(=O)CCC(=O)O)Cc1cccc(C(=O)Nc2sc3c(c2C(=O)Nc2ccc(CCc4ccc(C(=O)O)cc4)cc2)CCCC3)c1

- IC50 [1]: 401 nM
SMILES: CCC(CC)N(CCN(C)C(=O)CN1C(=O)NC2NC(=O)NC21)Cc1cccc(C(=O)Nc2[nH]c3ccccc3c2C(=O)Nc2ccc(CCCc3ccc(C(=O)O)cc3)cc2)c1 (stereo not given)

- IC50 [1]: 369 nM
SMILES: CCC(CC)N(CCN(C)C(=O)NCC(=O)O)Cc1cccc(C(=O)Nc2[nH]c3ccccc3c2C(=O)Nc2ccc(CCCc3ccc(C(=O)O)cc3)cc2)c1

- IC50 [3]: 1000 nM
SMILES: CCN(CC)c1ccc(NC(=O)c2cccc(CSCCOCCOCCOCCOCCOCCOCCOCCOCCC(=O)O)c2)c(-c2cc(C(=O)NCc3cccc(C(F)(F)F)c3)ccn2)c1

- AUC(0-t) [4]: 834 ng·h/mL
- bioavailability [5]: 13.1%
- AUC(0-t) [6]: 1090 ng·h/mL
- solubility at 24 h [8]: 103 µg/mL (≈ 133 µM)
- Cmax [9]: 568 ng/mL
- IC50 [1]: 71 nM
- IC50 [10]: 28 nM
- solubility at 24 h [11]: 264 µg/mL (≈ 341 µM)
- Ct [12]: 39 µg/mL
SMILES: CCC(CC)N(CCN(C)C(=O)CCC(=O)O)Cc1cccc(C(=O)Nc2[nH]c3ccccc3c2C(=O)Nc2ccc(CCCc3ccc(C(=O)O)cc3)cc2)c1
- dose excreted at 24 h [7]: 68.1%

- IC50 [1]: 2580 nM
SMILES: CN(Cc1cccc(C(=O)Nc2[nH]c3ccccc3c2C(=O)Nc2ccc(CCCc3ccc(C(=O)O)cc3)cc2)c1)C1CCN(C(=O)CCC(=O)O)C1 (stereo not given)

- bioavailability [5]: 1.1%
- AUC(0-t) [6]: 15.4 ng·h/mL
- solubility at 24 h [8]: > 482 µg/mL
- Cmax [9]: 15.5 ng/mL
- AUC(0-t) [13]: 170 ng·h/mL
- IC50 [1]: 166 nM
- IC50 [10]: 98 nM
- solubility at 24 h [11]: > 479 µg/mL
- Ct [12]: 34 µg/mL
SMILES: CCC(CC)N(CCN(C)C(=O)CCC(=O)NCCOCCOCCOCCO)Cc1cccc(C(=O)Nc2[nH]c3ccccc3c2C(=O)Nc2ccc(CCCc3ccc(C(=O)O)cc3)cc2)c1
- dose excreted at 24 h [7]: 58.8%
- inhibition (Rattus norvegicus): Active

- IC50 [1]: 257 nM
SMILES: CCN([C@H]1CC[C@H](C(=O)O)CC1)S(=O)(=O)c1cccc(C(=O)Nc2[nH]c3ccccc3c2C(=O)Nc2ccc(CCCc3ccc(C(=O)O)cc3)cc2)c1

- IC50 [1]: 267 nM
SMILES: CCC(CC)N(CCN(C)S(=O)(=O)NC(=O)OCC(=O)O)Cc1cccc(C(=O)Nc2[nH]c3ccccc3c2C(=O)Nc2ccc(CCCc3ccc(C(=O)O)cc3)cc2)c1

- IC50 [1]: 78 nM
SMILES: CCCC(CCC)N(CCN(C)C(=O)CCC(=O)O)Cc1cccc(C(=O)Nc2[nH]c3ccccc3c2C(=O)Nc2ccc(CCCc3ccc(C(=O)O)cc3)cc2)c1

- IC50 [1]: 538 nM
SMILES: CCC(CC)N(CCN(C)C(=O)CCC(=O)O)Cc1cccc(C(=O)Nc2[nH]c3ccccc3c2C(=O)Nc2ccccc2)c1

- IC50 [1]: 448 nM
SMILES: CCC(CC)N(CCN(C)C(=O)CCC(=O)O)Cc1cccc(C(=O)Nc2[nH]c3ccccc3c2C(=O)Nc2ccc(Cc3ccc(C(=O)O)cc3)cc2)c1

- IC50 [1]: 356 nM
SMILES: CC(C)N(CCN(C)C(=O)CCC(=O)O)Cc1cccc(C(=O)Nc2[nH]c3ccccc3c2C(=O)Nc2ccc(CCCc3ccc(C(=O)O)cc3)cc2)c1

- IC50 [1]: 535 nM
SMILES: CCC(CC)N(CCN(C)C(=O)CCC(=O)NCCOCCOCCOCCC(=O)O)Cc1cccc(C(=O)Nc2[nH]c3ccccc3c2C(=O)Nc2ccc(CCCc3ccc(C(=O)O)cc3)cc2)c1
